Measurements taken from patent US20250332173A1, “COMPOUNDS AND METHODS FOR MODULATING NUCLEIC ACID SPLICING” (REMIX THERAPEUTICS INC., priority 2021, published 2025).
pIC50: −log10 of the molar value. Read-outs that look alike come from different tables or passages of the source.

Key:
[1] = system: K562 (human chronic myelogenous leukemia) cells; test: Cell Titer Glo 2.0 cell viability assay; type: cell-based; conditions: Homo sapiens, K562, 72 h, K562 cells, 72 hours, Cell Titer Glo 2.0; read-out: K562 GI50
[2] = system: MYB mRNA; test: RT-qPCR splicing assay, MYB canonical junction (CJ) and alternative junction (AJ) mRNA; type: cell-based, human; conditions: Homo sapiens; for AC50: increase in MYB alternative junction (AJ) mRNA, read-out: MYB AJ AC50
Method in brief: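 24 h treatment, 37 °C/5% CO2; A673 or K562; 11-pt 3-fold series, top 10 uM final; DMSO ≤0.25%. Cell lysis with DNase I, then 1-step RT-qPCR. Housekeeping normalization: PPIA (A673), GAPDH or GUSB (K562).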

[3] = system: Target C; test: RT-qPCR splicing assay panel, Target C canonical junction (CJ) mRNA; type: cell-based, human; conditions: Homo sapiens
Method in brief: (§1)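 Canonical exon-exon junction transcript levels measured by one-step RT-qPCR of cell lysates, normalized to a housekeeping gene (GAPDH, GUSB or PPIA). Cells used were A673 or K562, exposed for 24 h to compound in 11-point, 3-fold series from 10 uM, with final DMSO at or below 0.25%.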

[4] = system: SMN2 mRNA; test: RT-qPCR splicing assay, SMN2 canonical junction (CJ) mRNA; type: cell-based, human; conditions: Homo sapiens
Method in brief: as §1

[5] = Table 5 panel, canonical junction qPCR, compound concentration having 50% response in CJ decrease, read-out: MYB IC50 (decrease in CJ mRNA levels)
[6] = decrease in MYB canonical junction (CJ) mRNA, RT-qPCR, read-out: MYB CJ IC50
[7] = Table 5 panel, canonical junction qPCR, compound concentration having 50% response in CJ decrease, read-out: Target C IC50 (decrease in CJ mRNA levels)
[8] = Table 5 panel, canonical junction qPCR, compound concentration having 50% response in CJ decrease, read-out: SMN2 IC50 (decrease in CJ mRNA levels)
[9] = canonical junction qPCR panel, Table 5, read-out: MYB (decrease in CJ mRNA levels, IC50)
[10] = canonical junction qPCR panel, Table 5, read-out: Target C (decrease in CJ mRNA levels, IC50)
[11] = canonical junction qPCR panel, Table 5, read-out: SMN2 (decrease in CJ mRNA levels, IC50)

Row | Compound | GI50 [1] | pIC50 [2, 5] | pIC50 [2, 6] | AC50 ([2]; RT-qPCR) | pIC50 [3, 7] | pIC50 [4, 8] | pIC50 [2, 9] | pIC50 [3, 10] | pIC50 [4, 11]
1 | Cc1cn2cc(-c3ccc4c(c3)CCN(C3CCNCC3)C4=O)nc2c(C)n1 [Compound 221, 6-[6,8-dimethylimidazo[1,2-a]pyrazin-2-yl]-2-(piperidin-4-yl)-3,4-dihydroisoquinolin-1-one] | 1000 to 10000 nM | < 5.00 | < 5.00 | > 10000 nM | < 5.00 | 6.00 to 7.00 |  |  | 
2 | Cc1c(O)c(-c2ncc3c(=O)n([C@H]4CCN[C@H](C)C4)ccc3n2)cc2cn(C)nc12 [Compound 1461, 2-(6-hydroxy-2,7-dimethyl-indazol-5-yl)-6-[(2R,4S)-2-methyl-4-piperidyl]pyrido[4,3-d]pyrimidin-5-one] | < 100 nM |  | > 7.00 | < 100 nM |  |  | > 7.00 | 6.00 to 7.00 | > 7.00
3 | Cc1c(O)c(-c2ncc3c(=O)n([C@@H]4CC[C@@H](N)C4)ccc3n2)cc2cn(C)nc12 [Compound 1476, 6-[(1R,3R)-3-aminocyclopentyl]-2-(6-hydroxy-2,7-dimethyl-indazol-5-yl)pyrido[4,3-d]pyrimidin-5-one] | 100 to 1000 nM |  | 6.00 to 7.00 | 100 to 1000 nM |  |  | 6.00 to 7.00 | 5.00 to 6.00 | > 7.00
4 | Cc1c(O)c(-c2ncc3c(=O)n([C@@H]4CCN[C@@H](C)C4)ccc3n2)cc2cn(C)nc12 [Compound 1462, 2-(6-hydroxy-2,7-dimethyl-indazol-5-yl)-6-[(2S,4R)-2-methyl-4-piperidyl]pyrido[4,3-d]pyrimidin-5-one] | < 100 nM |  | > 7.00 | < 100 nM |  |  | > 7.00 | 6.00 to 7.00 | > 7.00
5 | Cc1cn2cc(-c3cc(F)c4c(=O)n(C5CCNCC5)cnc4c3)cc(F)c2n1 [Compound 230] | 100 to 1000 nM | > 7.00 | > 7.00 | < 100 nM | > 7.00 | > 7.00 |  |  | 
6 | CNC12CCC(n3ccc4nc(-c5cc6cn(C)nc6c(C)c5O)ncc4c3=O)(CC1)C2 [Compound 1479] | < 100 nM |  | 6.00 to 7.00 | < 100 nM |  |  | > 7.00 | 5.00 to 6.00 | > 7.00
7 | Cn1cc2cc(-c3ncc4c(=O)n([C@@H]5CCNC5)ccc4n3)c(O)c(F)c2n1 [Compound 1466] | 100 to 1000 nM |  | 6.00 to 7.00 | 100 to 1000 nM |  |  | 6.00 to 7.00 | 6.00 to 7.00 | > 7.00
8 | Cc1c(O)c(-c2ncc3c(=O)n([C@H]4CC[C@@H](N(C)C)CC4)ccc3n2)cc2cn(C)nc12 [Compound 1460, 6-((1s,4s)-4-(dimethylamino)cyclohexyl)-2-(6-hydroxy-2,7-dimethyl-2H-indazol-5-yl)pyrido[4,3-d]pyrimidin-5(6H)-one] | 100 to 1000 nM |  | 6.00 to 7.00 | 100 to 1000 nM |  |  | 6.00 to 7.00 | 5.00 to 6.00 | > 7.00
9 | Cc1cn2cc(-c3ccc4c(c3)CCN(C3CCNCC3)C4=O)cc(C)c2n1 [Compound 217, 6-[2,8-dimethylimidazo[1,2-a]pyridin-6-yl]-2-(piperidin-4-yl)-3,4-dihydroisoquinolin-1-one] | 1000 to 10000 nM | 5.00 to 6.00 | 5.00 to 6.00 | 1000 to 10000 nM | < 5.00 | 6.00 to 7.00 |  |  | 
10 | Cc1c(O)c(-c2nc(C)c3c(=O)n([C@@H]4CCNC5(CC5)C4)ccc3n2)cc2cn(C)nc12 [Compound 1515, (R)-2-(6-hydroxy-2,7-dimethyl-2H-indazol-5-yl)-4-methyl-6-(4-azaspiro[2.5]octan-7-yl)pyrido[4,3-d]pyrimidin-5(6H)-one] | 100 to 1000 nM |  | 6.00 to 7.00 | < 100 nM |  |  | > 7.00 | 6.00 to 7.00 | 
11 | Cc1c(O)c(-c2ncc3c(=O)n([C@H]4CCNC5(CC5)C4)ccc3n2)cc2cn(C)nc12 [Compound 1512] | 100 to 1000 nM |  | 6.00 to 7.00 | < 100 nM |  |  | > 7.00 | 6.00 to 7.00 | 
